Data as given in patent US20250042882A1, “CERTAIN 3-AZABICYCLO[3.1.0]HEXANES AS GLP-1 RECEPTOR MODULATORS” (AstraZeneca AB, priority 2021, published 2025).

Legend:
[1] = biological target: T1, human phosphodiesterase-3A (Homo sapiens, UniProt Q14432); test: PDE3 Assay; format: biochemical; settings: human recombinant enzyme expressed in Sf9 cells; formation of 5′AMP from cAMP, SPA
T1 construct: host or cells: Sf9 (Spodoptera frugiperda)
Protocol: Evaluation of the effects of compounds on the activity of the human phosphodiesterase-3A is quantified by measuring the formation of 5′AMP from cAMP using a human recombinant enzyme expressed in a clonal isolate of Spodoptera frugiperda cells (Sf9) cells.
The test compound, reference compound or water (control) are added to a buffer containing 40 mM tris(hydroxymethyl)aminomethane (Tris)/HCl (pH 7.4) and 8 mM MgCl2, 450 nMcAMP and 0.25 μCi [^3H]cAMP.
Thereafter, the reaction is initiated by addition of the enzyme (about 1 U) and the mixture is incubated for 20 min at 22° C.
For basal control measurements, the enzyme is omitted from the reaction mixture.
Following incubation SPA beads are added. After 30 min at 22° C. under shaking, the amount of [^3H]5′AMP is quantified with a scintillation counter (Topcount, Packard).
The results are expressed as a percent inhibition of the control enzyme activity. The standard inhibitory reference compound is milrinone (CAS number 78415-72-2), which is tested in each experiment at several concentrations to obtain an inhibition curve from which its IC50 value is calculated.

GLP-1R = biological target: T2, GLP-1R (Homo sapiens, UniProt P43220); test: EndoC cAMP Accumulation Assay; format: cell-based; settings: EndoC-βH1 human pancreatic β cell line; HTRF cAMP accumulation
T2 construct: host or cells: EndoC-βH1 human pancreatic beta cell line
T2 sequence (P43220 24-463): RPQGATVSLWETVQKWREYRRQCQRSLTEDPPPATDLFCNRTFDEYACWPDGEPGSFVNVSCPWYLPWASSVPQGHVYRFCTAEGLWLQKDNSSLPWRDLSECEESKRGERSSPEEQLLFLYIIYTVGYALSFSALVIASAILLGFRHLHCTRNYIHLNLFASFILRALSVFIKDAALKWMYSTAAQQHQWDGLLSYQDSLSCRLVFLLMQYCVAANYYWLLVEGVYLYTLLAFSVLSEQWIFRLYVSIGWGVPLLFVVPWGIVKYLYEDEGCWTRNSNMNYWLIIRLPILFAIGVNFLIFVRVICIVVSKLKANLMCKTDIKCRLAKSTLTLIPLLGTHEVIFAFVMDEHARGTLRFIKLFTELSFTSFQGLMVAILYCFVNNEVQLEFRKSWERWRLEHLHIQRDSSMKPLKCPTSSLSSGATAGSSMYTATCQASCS
From the text: EndoC cAMP Accumulation Assay
A HTRF cAMP assay (cAMP Gs dynamic kit; CisoBio Cat #62AM4PEJ) was used to identify agonists of GLP-1R in a pancreatic insulinoma cell line (EndoC-⊕H1). […] EndoC-PHlcells have detectable GLP-1R messenger ribonucleic acid (mRNA) as detected by quantitative polymerase chain reaction (qPCR). […] The EndoC-PH1 cell line is a valid model of human beta cells and applicable for screenings to identify novel drug target candidates (Mol. Metab., 2018, 8, 144-157). CisBio HTRF cAMP kits are based on a competitive immunoassay using cryptate-labelled anti-cAMP antibody and d2-labeled cAMP. The detection kit is intended for the direct quantitative determination of cAMP. The specific signal (i.e. energy transfer) is inversely proportional to the concentration of cAMP in the standard or sample. Test compounds (10 mM in DMSO) were diluted into assay buffer (HBSS (Sigma #H8264) supplemented with 25 mM HEPES (Gibco #15630, pH 7.4), 0.1% BSA (Sigma #A3059) and 0.5 mM IBMX (Sigma #I7018) included fresh on the day of the assay) into 96 well U-bottom plates (Greiner #650201). Diluted compounds were transferred to ECHO source polypropylene plates (Labcyte #P-05525) and dose response curves were dispensed acoustically using ECHO 550 into black shallow-well u-bottom 384-well HTRF Assay Plates (Corning 4514).
Cryovials of EndoC-H1 (supplied at 1×10e^7 cells/vial) were used directly for screening. The cryovials and were removed from N2(l) and thawed rapidly in a 37° C. water bath. The cells were resuspended in assay buffer and centrifuged at 300 g for 5 min. Cells were resuspended in assay buffer at the appropriate concentration, typically at 12e5 cells per mL (3000 cells per well, dependent on cell batch) and 2.5 μL diluted cells were added to all wells of destination plate by Multidrop combi reagent dispenser (Thermofisher). The plates were incubated at rt for 30 min. The assay was stopped by adding 2.5 μL anti-cAMP cryptate solution to all wells and 2.5 μL cAMP-d2 solution (both diluted 1:20 in lysis buffer) to columns 1-22 by Combi drop. A volume of 2.5 μL cAMP-d2 solution was added to wells E23 to P24 and 2.5 μL lysis buffer added to wells A23 to D24 by multichannel pipette. The plates were incubated at rt for 1 h and read on an Envision plate reader using excitation wavelength of 320 mn and emission of 590 nm and 660 nm.
Raw data from Envision is converted to % DeltaF according to the manufacturer's instructions. Dose response curves are analysed via 4-Parameter Logistical Analysis and assay plate Z′ values obtained. Samples are graphed as percentage (%) activation plots compared to GIP (1-42, Bachem H-5645) with assay window defined by negative control as basal cell cAMP levels and positive control are defined by maximum GIP (82.5 nM) signal. GLP-1 (7-36 amide, Bachem H-6795) dose response curve was included on all plates.

human GLP-1R receptor = biological target: T3, human GLP-1R receptor (Homo sapiens, UniProt P43220, L260F); test: CHOK1 GLP-1R cAMP Assay; format: cell-based; settings: CHO-K1 cell line stably expressing human GLP-1R (Leu260Phe variant); HTRF cAMP; agonist activity
T3 construct: expressed in transfected cells; host or cells: CHO-K1 (ATCC CCL-61)
T3 sequence (P43220 24-463 L260F): as the sequence (P43220 24-463) above, with L237F counted along it
Protocol: A cell line stably expressing the human GLP-1R receptor (NM_002062.5, including the naturally-occurring variant Leu260Phe) in a CHO-K1 (ATCC® CCL-61™) was used for assay.
GLP-1 receptor mediated agonist activity was determined in a cell-based assay measuring cyclic adenosine monophosphate (cAMP) levels in cells using Homogeneous Time-Resolved Fluorescence (HTRF) cAMP detection kit (CisBio catalog #62AM4PEC, cAMP Gs Dynamic range kit). The cAMP detection method is based on a competitive immunoassay, in which cAMP produced by the cells and cAMP labeled with the dye d2 compete for binding to a Europium-Cryptate-labeled anti-cAMP antibody. The specific HTRF signal is inversely proportional to the concentration of cAMP.
Compounds were added to individual well in 384 well-assay plates (Greiner #784076) using an Echo (LabCyte) dispenser from 10 mM stocks. Varying concentration of compounds were added to wells, and DMSO was used to normalize each well to a volume of 100 nL. A dose response curve of GLP-1(7-36)NH2 (Bachem H-6795) was included in each run. 5 μL of cAMP concentration response standards are applied in specified wells in the assay plates. Cryo-preserved cells are thawed and resuspended in assay buffer pre-heated to 37° C. (20 mM HEPES pH 7.4, 1× Hank's Balanced Salt Solution (HBSS, Life Technologies #14065) supplemented with 0.1% (w/v) bovine serum albumin (Sigma, A-7030). Cells were centrifuged at 250*g for 5 min at rt, and resuspended in room tempered assay buffer to a final density of 0.16*10^6 cell/mL, to deliver 800 cells/well. 5 μL of assay buffer with 1 mM 3-isobutyl-1-methylxanthin (IBMX; Sigma cat I-7018) was dispensed per well in assay plates using a multidrop combi (Thermo Scientific) subsequently 5 μL of cell suspension was distributed to relevant wells in the assay using a multidrop dispenser. Assay plates were incubated 20 min at rt.
Detection reagents, Europium-Cryptate-labeled anti-cAMP antibody and cAMP labeled with the dye d2, are diluted in lysis buffer, provided by the manufacturer. 5 μL of each detection reagent is supplemented to each assay well using a multidrop dispenser. Assay plates are incubated in the dark for at least one h. The HTRF signal is measured using the HTRF module (excitation: 337 nm, emission A: 665 nm and emission B: 620 nm) in Pherastar FSX (BMG Labtech).
Raw data were converted to pM cAMP using the cAMP standard curve included in each run.
Converted data were further analyzed in Genedata Screener (Genedata) and EC50 determinations were made from agonist dose-response curves analyzed with a curve fitting program using a 4-parameter logistic dose response equation (Equation y=A+((B−A)/1+((C/x)^D))) where A is no stimulation, B is full stimulation, C is the EC50 and D is the Hill slope). The percent effect was determined relative to a saturating concentration of a full GLP-1R agonist (GLP-1(7-36)NH2 has 100% effect in this assay setup).

T1 sequence (Q14432 whole entry): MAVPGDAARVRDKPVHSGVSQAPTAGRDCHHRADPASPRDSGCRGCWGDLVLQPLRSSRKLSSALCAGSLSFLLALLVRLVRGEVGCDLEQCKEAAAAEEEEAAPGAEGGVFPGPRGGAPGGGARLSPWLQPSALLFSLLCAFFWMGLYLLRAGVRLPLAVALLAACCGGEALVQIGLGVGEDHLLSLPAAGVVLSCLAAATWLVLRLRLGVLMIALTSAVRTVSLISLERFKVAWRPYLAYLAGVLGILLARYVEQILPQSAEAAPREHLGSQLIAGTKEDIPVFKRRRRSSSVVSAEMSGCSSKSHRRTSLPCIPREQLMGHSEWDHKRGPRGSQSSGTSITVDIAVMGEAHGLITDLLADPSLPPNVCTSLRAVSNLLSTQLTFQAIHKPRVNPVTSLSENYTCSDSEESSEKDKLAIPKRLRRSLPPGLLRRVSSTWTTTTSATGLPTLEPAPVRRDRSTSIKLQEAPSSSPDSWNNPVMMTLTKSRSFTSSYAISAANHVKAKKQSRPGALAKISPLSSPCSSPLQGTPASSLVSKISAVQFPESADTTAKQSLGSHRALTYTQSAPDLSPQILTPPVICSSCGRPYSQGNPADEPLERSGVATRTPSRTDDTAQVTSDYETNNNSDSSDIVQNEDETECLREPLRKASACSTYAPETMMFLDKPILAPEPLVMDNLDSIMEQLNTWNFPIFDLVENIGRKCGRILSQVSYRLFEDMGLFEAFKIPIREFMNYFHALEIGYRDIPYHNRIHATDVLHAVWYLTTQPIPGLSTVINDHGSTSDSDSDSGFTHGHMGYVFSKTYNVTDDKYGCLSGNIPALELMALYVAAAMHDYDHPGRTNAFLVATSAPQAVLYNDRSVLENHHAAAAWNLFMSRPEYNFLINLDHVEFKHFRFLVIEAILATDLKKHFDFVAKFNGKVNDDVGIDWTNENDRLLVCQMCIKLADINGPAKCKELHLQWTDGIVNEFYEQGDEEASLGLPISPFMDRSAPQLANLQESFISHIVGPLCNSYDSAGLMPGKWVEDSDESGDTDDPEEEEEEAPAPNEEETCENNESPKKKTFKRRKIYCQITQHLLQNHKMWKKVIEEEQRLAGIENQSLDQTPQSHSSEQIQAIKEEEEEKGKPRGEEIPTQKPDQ

Compound	IC50 [1] [nM]	EC50 (GLP-1R) [nM]	EC50 (human GLP-1R receptor) [nM]
2-(((1R,5S6R)-6-((R*)-2-(5-Chloropyridin-2-yl)-5-fluoro-2-methylbenzo[d][1,3]dioxol-4-yl)-3-azabicyclo[3.1.0]hexan-3-yl)methyl)-4-fluoro-1-(((S)-oxetan-2-yl)methyl)-1H-benzo[d]imidazole-6-carboxylic acid [Example 10a]	> 100000	13	19
COc1cc(C(=O)O)cc2c1nc(CN1C[C@@H]3[C@H](C1)[C@H]3c1cccc3c1O[C@](C)(c1ccc(Cl)cc1F)O3)n2CC1CCO1 (relative stereo) [Example 2, 2-(((1R,5S,6R)-6-((R*)-2-(4-Chloro-2-fluorophenyl)-2-methylbenzo[d][1,3]dioxol-4-yl)-3-azabicyclo[3.1.0]hexan-3-yl)methyl)-4-methoxy-1-(((S)-oxetan-2-yl)methyl)-1H-benzo[d]imidazole-6-carboxylic acid]	> 10000	15	14
CC1(c2ccc(Cl)cc2F)Oc2cccc([C@H]3[C@@H]4CN(Cc5nc6ccc(C(=O)O)cc6n5CC5CCO5)C[C@@H]43)c2O1 (stereo partly drawn) [Example 1, 2-(((1R,5S,6R)-6-(2-(4-Chloro-2-fluorophenyl)-2-methylbenzo[d][1,3]dioxol-4-yl)-3-azabicyclo[3.1.0]hexan-3-yl)methyl)-1-(((S)-oxetan-2-yl)methyl)-1H-benzo[d]imidazole-6-carboxylic acid]	–	69	180
COc1cc(C(=O)O)cc2c1nc(CN1C[C@@H]3[C@H](C1)[C@H]3c1c(F)ccc3c1OC(C)(c1ccc(Cl)cn1)O3)n2C[C@@H]1CCO1 (stereo partly drawn) [Example 6, 2-(((1R,5S,6R)-6-(2-(5-Chloropyridin-2-yl)-5-fluoro-2-methylbenzo[d][1,3]dioxol-4-yl)-3-azabicyclo[3.1.0]hexan-3-yl)methyl)-4-methoxy-1-(((S)-oxetan-2-yl)methyl)-1H-benzo[d]imidazole-6-carboxylic acid]	–	19	31
N#Cc1ccc(COc2cccc(C3CCN(Cc4nc5ccc(C(=O)O)cc5n4C[C@@H]4CCO4)CC3)n2)c(F)c1 [Ref Comp B, reference compound]	11000	–	–

More lines, in order of falling EC50 (GLP-1R), values ahead:

IC50 [1] [nM]	EC50 (GLP-1R) [nM]	EC50 (human GLP-1R receptor) [nM]	Compound
–	170	260	CC1(c2ccc(Cl)cn2)Oc2cccc([C@H]3[C@@H]4CN(Cc5nc6ccc(C(=O)O)cc6n5CC5CCO5)C[C@@H]43)c2O1 (stereo partly drawn) [Example 3, 2-(((1R,5S,6R)-6-(2-(5-Chloropyridin-2-yl)-2-methylbenzo[d][1,3]dioxol-4-yl)-3-azabicyclo[3.1.0]hexan-3-yl)methyl)-1-(((S)-oxetan-2-yl)methyl)-1H-benzo[d]imidazole-6-carboxylic acid]
–	150	260	C[C@@]1(c2ccc(Cl)cn2)Oc2cccc([C@H]3[C@@H]4CN(Cc5nc6c(F)cc(C(=O)O)cc6n5CCn5cccn5)C[C@@H]43)c2O1 (single isomer, unassigned) [Example 7, 1-(2-(1H-Pyrazol-1-yl)ethyl)-2-(((1R,5S,6s)-6-((R*)-2-(5-chloropyridin-2-yl)-2-methylbenzo[d][1,3]dioxol-4-yl)-3-azabicyclo[3.1.0]hexan-3-yl)methyl)-4-fluoro-1H-benzo[d]imidazole-6-carboxylic acid]
–	7.5	30	CCn1cncc1Cn1c(CN2C[C@@H]3[C@H](C2)[C@H]3c2cccc3c2O[C@](C)(c2ccc(Cl)cn2)O3)nc2c(Cl)cc(C(=O)O)cc21 (single isomer, unassigned) [Example 12, 4-Chloro-2-(((1R,5S,6s)-6-((R*)-2-(5-chloropyridin-2-yl)-2-methylbenzo[d][1,3]dioxol-4-yl)-3-azabicyclo[3.1.0]hexan-3-yl)methyl)-1-((1-ethyl-1H-imidazol-5-yl)methyl)-1H-benzo[d]imidazole-6-carboxylic acid]
